According to US9540343B2 (Gilead Sciences, Inc., priority 2011, dated 2017):

Legend:
HIV-IIIb = experiment: Test A: Antiviral assay in MT4 cells; assay type: cell-based, HIV-1; settings: Human immunodeficiency virus 1, IIIB, MT4, 120 h, read-out: % inhibition at 2 μM, percent inhibition of virus-induced cell killing, from dose response curve at 2 uM drug; MT-4 cells infected with HIV-IIIb, 5 days, CellTiter-Glo
in vitro = settings: human, uninfected MT-4 cells, CC50 (nM), same protocol as Test A, CellTiter-Glo
In short: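 Cytoprotection read-out: CellTiter-Glo chemiluminescence after 5 days at 37 °C of HIV-IIIb-infected MT-4 cells (m.o.i. 0.003) with compound in 10-point 3-fold dilutions, quadruplicate, 10% FBS. Cytotoxicity (CC50) measured identically without virus.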

SMILES	inhibition at 2 µM (HIV-IIIb) [%]	CC50 at 5 days (in vitro) [nM]
Cc1nc(C(F)(F)F)nn1CC(=O)N[C@@H](Cc1cc(F)cc(F)c1)c1ncccc1-c1ccc(F)c(C(N)=O)c1 [Example 374, (S)-5-(2-(2-(3,5-difluorophenyl)-1-(2-(5-methyl-3-(trifluoromethyl)-1H-1,2,4-triazol-1-yl)acetamido)ethyl)pyridin-3-yl)-2-fluorobenzamide]	5	> 53200
NC(=O)c1cc(-c2cccnc2[C@H](Cc2cc(F)cc(F)c2)NC(=O)Cn2c(CN3CCOCC3)nc3ccccc32)ccc1F [Example 577, (S)-5-(2-(2-(3,5-difluorophenyl)-1-(2-(2-(morpholinomethyl)-1H-benzo[d]imidazol-1-yl)acetamido)ethyl)pyridin-3-yl)-2-fluorobenzamide]	20	> 53200
NC(=O)c1cc(-c2cccnc2[C@H](Cc2cc(F)cc(F)c2)NC(=O)Cn2nc(C(F)(F)F)c3c2C2CC2CC3)ccc1F (stereo partly drawn) [Example 342C, 5-(2-((1S)-2-(3,5-difluorophenyl)-1-(2-(3-(trifluoromethyl)-5,5a,6,6a-tetrahydrocyclopropa[g]indazol-1(4H)-yl)acetamido)ethyl)pyridin-3-yl)-2-fluorobenzamide]	119	13700
NC(=O)c1cc(-c2cccnc2[C@H](Cc2cc(F)cc(F)c2)NC(=O)Cn2c(=O)[nH]c3ccccc32)ccc1F [Example 318, (S)-5-(2-(2-(3,5-difluorophenyl)-1-(2-(2-oxo-2,3-dihydro-1H-benzo[d]imidazol-1-yl)acetamido)ethyl)pyridin-3-yl)-2-fluorobenzamide]	27	> 53200
NC(=O)c1ccc(-c2cccnc2[C@H](Cc2cc(F)cc(F)c2)NC(=O)Cc2c[nH]c3ccc(O)cc23)cc1 [Example 42, (S)-4-(2-(2-(3,5-difluorophenyl)-1-(2-(5-hydroxy-1H-indol-3-yl)acetamido)ethyl)pyridin-3-yl)benzamide]	96	> 53000
N#Cc1nn(CC(=O)N[C@@H](Cc2cc(F)cc(F)c2)c2ncccc2-c2ccc(F)c(C(N)=O)c2)c2c1C1CC1C2 (stereo partly drawn) [Example 242D, 5-(2-((1S)-1-(2-(3-cyano-3b,4,4a,5-tetrahydro-1H-cyclopropa[3,4]cyclopenta[1,2-c]pyrazol-1-yl)acetamido)-2-(3,5-difluorophenyl)ethyl)pyridin-3-yl)-2-fluorobenzamide]	97	25500
NC(=O)c1cc(-c2cccnc2[C@H](Cc2cc(F)cc(F)c2)NC(=O)Cn2nc(C(F)(F)F)c3c2C(O)CC3)ccc1F (stereo partly drawn) [Example 391, 5-(2-((1S)-2-(3,5-difluorophenyl)-1-(2-(6-hydroxy-3-(trifluoromethyl)-5,6-dihydrocyclopenta[c]pyrazol-1(4H)-yl)acetamido)ethyl)pyridin-3-yl)-2-fluorobenzamide]	60	44800
NC(=O)c1cc(-c2cccnc2[C@H](Cc2cc(F)cc(F)c2)NC(=O)Cn2cc(C(F)(F)F)nc2CO)ccc1F [Example 437, (S)-5-(2-(2-(3,5-difluorophenyl)-1-(2-(2-(hydroxymethyl)-4-(trifluoromethyl)-1H-imidazol-1-yl)acetamido)ethyl)pyridin-3-yl)-2-fluorobenzamide]	3	> 53200
NC(=O)c1cc(-c2cccnc2[C@H](Cc2cc(F)cc(F)c2)NC(=O)Cn2cc(Br)c(C(F)(F)F)n2)ccc1F [Example 463, (S)-5-(2-(1-(2-(4-bromo-3-(trifluoromethyl)-1H-pyrazol-1-yl)acetamido)-2-(3,5-difluorophenyl)ethyl)pyridin-3-yl)-2-fluorobenzamide]	11	14700
NC(=O)c1cc(-c2ccc[n+]([O-])c2[C@H](Cc2cc(F)cc(F)c2)NC(=O)Cn2nc(C(F)(F)F)c3c2CCS(=O)(=O)C3)ccc1F [Example 197, (S)-3-(3-carbamoyl-4-fluorophenyl)-2-(2-(3,5-difluorophenyl)-1-(2-(5,5-dioxido-3-(trifluoromethyl)-6,7-dihydrothiopyrano[4,3-c]pyrazol-1(4H)-yl)acetamido)ethyl)pyridine-1-oxide]	0	> 53200
NC(=O)c1cc(-c2cccnc2[C@H](Cc2cc(F)cc(F)c2)NC(=O)Cc2c[nH]c3ccc(F)cc23)ccc1Cl [Example 412, (S)-2-chloro-5-(2-(2-(3,5-difluorophenyl)-1-(2-(5-fluoro-1H-indol-3-yl)acetamido)ethyl)pyridin-3-yl)benzamide]	80	11100
CNC(=O)c1cccc(-c2cccnc2[C@H](Cc2cc(F)cc(F)c2)NC(=O)Cc2c[nH]c3ccc(O)cc23)c1 [Example 46, (S)-3-(2-(2-(3,5-difluorophenyl)-1-(2-(5-hydroxy-1H-indol-3-yl)acetamido)ethyl)pyridin-3-yl)-N-methylbenzamide]	87	> 53000
NC(=O)c1cc(-c2cccnc2[C@H](Cc2cc(F)cc(F)c2)NC(=O)Cn2ccc3ccc(Cl)cc32)ccc1F [Example 494, (S)-5-(2-(1-(2-(6-chloro-1H-indol-1-yl)acetamido)-2-(3,5-difluorophenyl)ethyl)pyridin-3-yl)-2-fluorobenzamide]	17	10400
Cc1cc2nc(C(F)(F)F)n(CC(=O)N[C@@H](Cc3cc(F)cc(F)c3)c3ncccc3-c3ccc(F)c(C(N)=O)c3)c2cc1C [Example 319, (S)-5-(2-(2-(3,5-difluorophenyl)-1-(2-(5,6-dimethyl-2-(trifluoromethyl)-1H-benzo[d]imidazol-1-yl)acetamido)ethyl)pyridin-3-yl)-2-fluorobenzamide]	70	> 52500
NS(=O)(=O)c1cccc(-c2cccnc2[C@H](Cc2cc(F)cc(F)c2)NC(=O)Cc2c[nH]c3ccc(F)cc23)c1 [Example 428, (S)—N-(2-(3,5-difluorophenyl)-1-(3-(3-sulfamoylphenyl)pyridin-2-yl)ethyl)-2-(5-fluoro-1H-indol-3-yl)acetamide]	94	23000
Cc1cc(=O)n(CC(=O)N[C@@H](Cc2cc(F)cc(F)c2)c2ncccc2-c2ccnc(C(N)=O)c2)c2ccccc12 [Example 362, (S)-2-(2-(3,5-difluorophenyl)-1-(2-(4-methyl-2-oxoquinolin-1(2H)-yl)acetamido)ethyl)-3,4′-bipyridine-2′-carboxamide]	23	> 53000
NC(=O)c1cc(-c2cccnc2[C@H](Cc2cc(F)cc(F)c2)NC(=O)Cn2nc(C(F)F)c(Br)c2C(F)F)ccc1F [Example 555C, (S)-5-(2-(1-(2-(4-bromo-3,5-bis(difluoromethyl)-1H-pyrazol-1-yl)acetamido)-2-(3,5-difluorophenyl)ethyl)pyridin-3-yl)-2-fluorobenzamide]	14	25500
NC(=O)c1cc(-c2cccnc2[C@H](Cc2cc(F)cc(F)c2)NC(=O)[C@H]2COCCN2)ccc1F [Example 188, (R)—N—((S)-1-(3-(3-carbamoyl-4-fluorophenyl)pyridin-2-yl)-2-(3,5-difluorophenyl)ethyl)morpholine-3-carboxamide]	0	> 53000
